Values of other authors as cited in patent US20150320814A1, “NUTRACEUTICAL FORMULATION FOR TREATMENT OF ANXIETY AND DEPRESSION” (priority 2014, published 2015).
Each block holds one molecule with its values, some of them ahead of it.

Legend:
[1] = system: GABA receptors; details: isolated from skullcap
[2] = in vivo
[3] = system: patients with major depression; details: 125-300 mg of magnesium with each meal and at bedtime
[4] = system: alpha brain waves; details: sixty minutes after oral administration, volunteers
[5] = system: patients with clinical depression; details: patients with clinical depression treated with nicotinic acid

activity at GABA receptors [1]: agonists of GABA receptors
SMILES: O=c1cc(-c2ccccc2)oc2cc(O)c(O)c(O)c12 [baicalein]

blood brain barrier passage [2]: passes through the blood brain barrier
SMILES: CCNC(=O)CC[C@H](N)C(=O)O [Theanine, L-theanine]

SMILES: [Mg+2] [magnesium]
recovery from major depression [3]: Rapid recovery

activity at GABA receptors [1]: agonists of GABA receptors
SMILES: O=C(O)[C@H]1O[C@@H](Oc2cc3oc(-c4ccccc4)cc(=O)c3c(O)c2O)[C@H](O)[C@@H](O)[C@@H]1O [baicalin]

SMILES: NCCCC(=O)O [GABA, gamma aminobutyric acid]
alpha brain waves by electroencephalogram [4]: increases in alpha brain waves

SMILES: O=C(O)c1cccnc1 [nicotinic acid]
patients showing significant improvements in mood [5]: 14 of 15
